Measurements reported in ChEMBL document CHEMBL3826948, “Alkyl substituted aminal derivatives of HCV NS5A inhibitor MK-8742” (Bioorg Med Chem Lett, 2016).

Tests used:
[1] = Inhibition of NS5A in HCV genotype 1a assessed as replicon RNA levels by real time PCR based cell based assay; design: species or system Hepatitis C virus subtype 1a; conditions: Hepatitis C virus
[2] = AUC in Sprague-Dawley rat at 10 mg/kg, po; type: ADME, organism-based; conditions: in vivo
[3] = Inhibition of NS5A in HCV genotype 2a assessed as replicon RNA levels by real time PCR based cell based assay; design: species or system Hepatitis C virus subtype 2a; conditions: Hepatitis C virus
[4] = Inhibition of NS5A in HCV genotype 2b assessed as replicon RNA levels by real time PCR based cell based assay; design: species or system Hepatitis C virus subtype 2b; conditions: Hepatitis C virus
[5] = Inhibition of NS5A in HCV genotype 1b assessed as replicon RNA levels by real time PCR based cell based assay; design: species or system Hepatitis C virus subtype 1b; conditions: Hepatitis C virus
[6] = Inhibition of NS5A in HCV genotype 3a assessed as replicon RNA levels by real time PCR based cell based assay; design: species or system Hepatitis C virus subtype 3a; conditions: Hepatitis C virus
[7] = Inhibition of NS5A in HCV genotype 4a assessed as replicon RNA levels by real time PCR based cell based assay; design: species or system Hepatitis C virus subtype 4a; conditions: Hepatitis C virus
[8] = Clearance in Sprague-Dawley rat at 10 mg/kg po or 2 mg/kg iv; type: ADME, organism-based; conditions: in vivo
[9] = Oral bioavailability in Sprague-Dawley rat at 10 mg/kg; type: ADME, organism-based; conditions: in vivo
[10] = Half life in Sprague-Dawley rat at 10 mg/kg po or 2 mg/kg iv; type: ADME, organism-based; conditions: in vivo
[11] = Cmax in Sprague-Dawley rat at 10 mg/kg, po; type: ADME, organism-based; design: dose 10 mg/kg, route oral; conditions: in vivo
[12] = Oral bioavailability in Sprague-Dawley rat at 5 mg/kg; type: ADME, organism-based; conditions: in vivo
[13] = AUC in Sprague-Dawley rat at 5 mg/kg, po; type: ADME, organism-based; conditions: in vivo
[14] = Clearance in Sprague-Dawley rat at 5 mg/kg po or 2 mg/kg iv; type: ADME, organism-based; conditions: in vivo
[15] = Cmax in Sprague-Dawley rat at 5 mg/kg, po; type: ADME, organism-based; design: dose 5 mg/kg, route oral; conditions: in vivo
[16] = Half life in Sprague-Dawley rat at 5 mg/kg po or 2 mg/kg iv; type: ADME, organism-based; conditions: in vivo
Nonstructural protein 5A [17] = target: Nonstructural protein 5A (Hepatitis C virus, UniProt Q5L478, L31V); assay: Inhibition of NS5A in HCV genotype 1a L31V mutant; design: species or system Hepatitis C virus subtype 1a
[18] = Inhibition of NS5A in HCV genotype 4a; design: species or system Hepatitis C virus subtype 4a
Nonstructural protein 5A [19] = target: Nonstructural protein 5A (Hepatitis C virus, UniProt Q5L478, Y93H); assay: Inhibition of NS5A in HCV genotype 1a Y93H mutant; design: species or system Hepatitis C virus subtype 1a
Sequence of Nonstructural protein 5A (Hepatitis C virus, UniProt Q5L478, Y93H) (Q5L478 entry or part of it Y93H): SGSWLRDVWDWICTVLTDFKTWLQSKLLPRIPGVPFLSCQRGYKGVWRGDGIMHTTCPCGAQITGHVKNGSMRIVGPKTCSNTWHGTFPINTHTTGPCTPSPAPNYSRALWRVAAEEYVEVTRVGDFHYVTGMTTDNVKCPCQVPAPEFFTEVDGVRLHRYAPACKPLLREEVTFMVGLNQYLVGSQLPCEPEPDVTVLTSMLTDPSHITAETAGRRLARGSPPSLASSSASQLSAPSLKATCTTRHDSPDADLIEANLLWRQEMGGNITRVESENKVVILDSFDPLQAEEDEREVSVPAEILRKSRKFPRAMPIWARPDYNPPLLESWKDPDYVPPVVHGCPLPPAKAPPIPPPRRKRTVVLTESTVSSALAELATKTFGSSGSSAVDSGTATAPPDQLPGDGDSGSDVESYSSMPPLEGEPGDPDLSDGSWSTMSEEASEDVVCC

[20] = Inhibition of NS5A in HCV genotype 1b; design: species or system Hepatitis C virus subtype 1b
[21] = Inhibition of NS5A in HCV genotype 1a; design: species or system Hepatitis C virus subtype 1a
[22] = Inhibition of NS5A in HCV genotype 2b; design: species or system Hepatitis C virus subtype 2b
[23] = Inhibition of NS5A in HCV genotype 2a; design: species or system Hepatitis C virus subtype 2a
[24] = Inhibition of NS5A in HCV genotype 3a; design: species or system Hepatitis C virus subtype 3a

Row | SMILES | EC50 [1] | EC50 [3] | EC50 [4] | EC50 [5] | EC50 [6] | EC50 [7] | also measured
1 | COC(=O)N[C@H](C(=O)N1CCC[C@H]1c1ncc(-c2ccc3c(c2)OC(C)n2c-3cc3cc(-c4cnc([C@@H]5CCCN5C(=O)[C@@H](NC(=O)OC)C(C)C)[nH]4)ccc32)[nH]1)C(C)C (some centres not stated) | 3 pM | 7 pM | 23000 pM | 3 pM | 90 pM | 30 pM | AUC [2]: 6.2 µM·h; clearance [8]: 8.5 mL/min/kg; bioavailability [9]: 26%; half-life [10]: 2.2 h; Cmax [11]: 990 nM
2 | CCC1Oc2cc(-c3cnc([C@@H]4CCCN4C(=O)[C@@H](NC(=O)OC)C(C)C)[nH]3)ccc2-c2cc3cc(-c4cnc([C@@H]5CCCN5C(=O)[C@@H](NC(=O)OC)C(C)C)[nH]4)ccc3n21 (some centres not stated) | 2 pM | 1 pM | 2000 pM | 2 pM | 300 pM | 40 pM | bioavailability [12]: 43%; AUC [13]: 8.4 µM·h; clearance [14]: 5.2 mL/min/kg; Cmax [15]: 1220 nM; half-life [16]: 3.6 h
3 | COC(=O)N[C@H](C(=O)N1CCC[C@H]1c1ncc(-c2ccc3c(c2)OCn2c-3cc3cc(-c4cnc([C@@H]5CCCN5C(=O)[C@@H](NC(=O)OC)C(C)C)[nH]4)ccc32)[nH]1)C(C)C | – | – | – | – | – | – | EC50 (Nonstructural protein 5A [17]): 3000 pM; EC50 [18]: 60 pM; EC50 (Nonstructural protein 5A [19]): 100000 pM; EC50 [20]: 8 pM; EC50 [21]: 10 pM; EC50 [22]: 31000 pM; EC50 [23]: 7 pM; EC50 [24]: 500 pM
4 | COC(=O)N[C@H](C(=O)N1CCC[C@H]1c1ncc(-c2ccc3c(c2)OC(C2CC2)n2c-3cc3cc(-c4cnc([C@@H]5CCCN5C(=O)[C@@H](NC(=O)OC)C(C)C)[nH]4)ccc32)[nH]1)C(C)C (some centres not stated) | 3 pM | 2 pM | 1000 pM | 4 pM | 100 pM | 20 pM | bioavailability [12]: 27%; AUC [13]: 4.4 µM·h; clearance [14]: 6.2 mL/min/kg; Cmax [15]: 740 nM; half-life [16]: 3.4 h
5 | COC(=O)N[C@H](C(=O)N1CCC[C@H]1c1ncc(-c2ccc3c(c2)OC(C2CCC(F)(F)CC2)n2c-3cc3cc(-c4cnc([C@@H]5CCCN5C(=O)[C@@H](NC(=O)OC)C(C)C)[nH]4)ccc32)[nH]1)C(C)C (mixture of isomers) | 2 pM | 7 pM | 4000 pM | 0.8 pM | 800 pM | 70 pM | –
6 | COC(=O)N[C@H](C(=O)N1CCC[C@H]1c1ncc(-c2ccc3c(c2)OC(C2CCC2)n2c-3cc3cc(-c4cnc([C@@H]5CCCN5C(=O)[C@@H](NC(=O)OC)C(C)C)[nH]4)ccc32)[nH]1)C(C)C (mixture of isomers) | 8 pM | 6 pM | 9000 pM | 5 pM | 1000 pM | 60 pM | –
7 | COC(=O)N[C@H](C(=O)N1CCC[C@H]1c1ncc(-c2ccc3c(c2)OC(CC(C)C)n2c-3cc3cc(-c4cnc([C@@H]5CCCN5C(=O)[C@@H](NC(=O)OC)C(C)C)[nH]4)ccc32)[nH]1)C(C)C (mixture of isomers) | 0.8 pM | 8 pM | 10000 pM | 0.7 pM | 400 pM | 20 pM | –
8 | COC(=O)N[C@H](C(=O)N1CCC[C@H]1c1nc(-c2ccc3c(c2)O[C@@H](c2ccccc2)n2c-3cc3cc(-c4c[nH]c([C@@H]5CCCN5C(=O)[C@@H](NC(=O)OC)C(C)C)n4)ccc32)c[nH]1)C(C)C [ELBASVIR] | – | – | – | – | – | – | EC50 (Nonstructural protein 5A [17]): 500 pM; EC50 [18]: 3 pM; EC50 (Nonstructural protein 5A [19]): 2000 pM; EC50 [20]: 3 pM; EC50 [21]: 4 pM; EC50 [22]: 3000 pM; EC50 [23]: 3 pM; EC50 [24]: 20 pM
